Literature values, collected in US20210290592A1, “COMPOSITION AND METHOD FOR OPIOID SPARING” (Zelira Therapeutics Operations Pty Ltd., priority 2018, published 2021).

Conditions: treatment group, 5 mg THC, n=105; 74 mg in control group, difference not statistically significant

CCCCCc1cc(O)c2c(c1)OC(C)(C)[C@@H]1CCC(C)=C[C@@H]21 [dronabinol]
Median dose of micro-opioid agonist piritramide in the two days post surgery: 54 mg
